From EP4786472A1, “BRD4 PROTEIN DEGRADATION AGENT COMPOUND, AND PREPARATION METHOD AND USE THEREFOR” (Miracure Biotechnology Limited, priority 2023, dated 2025)
Read-outs that look alike come from different tables or passages of the source.

Experiments:
Type in all cases: cell-based
22RV1 = assay: Cell proliferation assay (CellTiterGlo); conditions: 22RV1 cells, 72 h compound treatment, CellTiterGlo cell viability, read-out: 22Rv1 ATP average IC50
Procedure: (§1) Test Example 1. Cell Proliferation Assay
(§2) The cell line used was 22RV1 or LNCaP, and the medium was RPMI-1640 containing 10% FBS and antibiotics. All incubations were performed at 37 °C in a humidified carbon dioxide incubator.
(§3) On day 1, cells were digested with 0.25% trypsin (containing EDTA) and collected by centrifugation. The cells were seeded in a 96-well plate (white wall/transparent bottom) at 5000 cells/well and cultured overnight.
(§4) On day 2, A stock solution of the compound at a concentration of 10 mM was subjected to an 8-fold serial dilution to obtain 8 concentration points. 2 µL of the compound solution at each concentration point was added to 98 µL of fresh medium, and the mixture was mixed homogeneously. Then, 5 µL of the compound solution diluted in the medium at each concentration point was added to 100 µL of overnight medium containing the cells, and 2 replicates were set for each concentration. The mixture was cultured for 72 h.
(§5) After 72 h of compound treatment, the plate was equilibrated to room temperature, 100 µL of CellTiterGlo (Promega) was added. The mixture was mixed homogeneously for 2 min, left to stand at room temperature for 10 min, and then read for luminescence values on a SpectraMax M5 microplate reader to evaluate cell viability. The positive control was 1% Tween-20 and the negative control was 0.1% DMSO. IC50 was generated by 4-parameter non-linear regression fitting in GraphPad Prism.

LNCaP = assay: Cell proliferation assay (CellTiterGlo); conditions: LNCaP cells, 72 h compound treatment, CellTiterGlo cell viability, read-out: LNCap ATP average IC50
Procedure: as §1, §2, §3, §4, §5

BRD4 = BRD4 (Homo sapiens, UniProt O60885); assay: BRD4 degradation assay (Western-blot / Simple Western) in 22RV1 cells; conditions: for activity at 0.2 µM: 22Rv1, 5 h, read-out: BRD4 degradation of 22RV1 (200 nM 5 h)

Structure (SMILES) | IC50 (22RV1) | IC50 (LNCaP) | BRD4 degradation of 22RV1 (200 nM 5 h) (BRD4; 22RV1 cells, 200 nM, 5 h, target content as percentage of control (DMSO = 100%)) | IC50 (22RV1; Homo sapiens) | IC50 (LNCaP; Homo sapiens) | activity at 0.2 µM (BRD4)
Cc1sc2c(c1C)C(c1ccc(C#CCN)cc1)=N[C@@H](CC(=O)OC(C)(C)C)c1nnc(C)n1-2 [GNE-0011, reference compound] | < 50 nM | < 50 nM | B (20% < B <50%) | – | – | –
C=CC(=O)Nc1ccc(C2=N[C@@H](CC(=O)OC(C)(C)C)c3nnc(C)n3-c3sc(C)c(C)c32)cc1 [compound 9230] | – | – | – | < 50 nM | < 50 nM | < 20%
C=CS(=O)(=O)Nc1ccc(C2=N[C@@H](CC(=O)OC(C)(C)C)c3nnc(C)n3-c3sc(C)c(C)c32)cc1 [compound 9231] | – | – | – | 50 to 200 nM | < 50 nM | < 20%
Cc1sc2c(c1C)C(c1ccc(NC(=O)CCl)cc1)=N[C@@H](Cc1nccs1)c1nnc(C)n1-2 [compound 9250] | – | – | – | < 50 nM | < 50 nM | 80 to 100%
CC#CC(=O)Nc1ccc(C2=N[C@@H](Cc3nccs3)c3nnc(C)n3-c3sc(C)c(C)c32)cc1 [compound 9253] | – | – | – | < 50 nM | < 50 nM | 50 to 80%
CC#CC(=O)Nc1ccc(C2=N[C@@H](CC(=O)OC(C)(C)C)c3nnc(C)n3-c3sc(C)c(C)c32)cc1 [compound 9259] | – | – | – | < 50 nM | < 50 nM | 20 to 50%
C#CC(=O)Nc1ccc(C2=N[C@@H](CC(=O)OC(C)(C)C)c3nnc(C)n3-c3sc(C)c(C)c32)cc1 [compound 9260] | – | – | – | < 50 nM | < 50 nM | < 20%
